Reference: PubChem BioAssay (NCI)
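In this assay, cells in 96-well plates receive the compound at five concentrations for 48 hours. Endpoints are linearly interpolated between the surrounding concentrations. GI50: concentration for 50% inhibition of growth. TGI marks complete inhibition of growth.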

Columns and labels:
Test in all cases: growth of human tumour cells (NCI), 48 h
786-0 renal = test system: 786-0 renal
A498 renal = test system: A498 renal
A549 NSCLC = test system: A549 NSCLC
ACHN renal = test system: ACHN renal
BT-549 breast = test system: BT-549 breast
CAKI-1 renal = test system: CAKI-1 renal
CCRF-CEM leukemia = test system: CCRF-CEM leukemia
COLO 205 colon = test system: COLO 205 colon
DU-145 prostate = test system: DU-145 prostate
EKVX NSCLC = test system: EKVX NSCLC
HCC-2998 colon = test system: HCC-2998 colon
HCT-116 colon = test system: HCT-116 colon
HCT-15 colon = test system: HCT-15 colon
HL-60(TB) leukemia = test system: HL-60(TB) leukemia
HOP-62 NSCLC = test system: HOP-62 NSCLC
HOP-92 NSCLC = test system: HOP-92 NSCLC
HS 578T breast = test system: HS 578T breast
HT29 colon = test system: HT29 colon
K-562 leukemia = test system: K-562 leukemia
KM12 colon = test system: KM12 colon
LOX IMVI melanoma = test system: LOX IMVI melanoma
M14 melanoma = test system: M14 melanoma
MALME-3M melanoma = test system: MALME-3M melanoma
MCF7 breast = test system: MCF7 breast
MDA-MB-231 breast = test system: MDA-MB-231 breast
MDA-MB-435 = test system: MDA-MB-435
MOLT-4 leukemia = test system: MOLT-4 leukemia
NCI-H226 lung = test system: NCI-H226 lung
NCI-H23 lung = test system: NCI-H23 lung
NCI-H460 lung = test system: NCI-H460 lung
NCI-H522 lung = test system: NCI-H522 lung
NCI/ADR-RES ovarian = test system: NCI/ADR-RES ovarian
OVCAR-3 ovarian = test system: OVCAR-3 ovarian
OVCAR-4 ovarian = test system: OVCAR-4 ovarian
OVCAR-5 ovarian = test system: OVCAR-5 ovarian
OVCAR-8 ovarian = test system: OVCAR-8 ovarian
PC-3 prostate = test system: PC-3 prostate
RPMI-8226 leukemia = test system: RPMI-8226 leukemia
RXF 393 renal = test system: RXF 393 renal
SF-268 CNS = test system: SF-268 CNS
SF-295 CNS = test system: SF-295 CNS
SF-539 CNS = test system: SF-539 CNS
SK-MEL-28 melanoma = test system: SK-MEL-28 melanoma
SK-MEL-5 melanoma = test system: SK-MEL-5 melanoma
SK-OV-3 ovarian = test system: SK-OV-3 ovarian
SN12C renal = test system: SN12C renal
SNB-19 CNS = test system: SNB-19 CNS
SNB-75 CNS = test system: SNB-75 CNS
SR leukemia = test system: SR leukemia
SW-620 colon = test system: SW-620 colon
T-47D breast = test system: T-47D breast
TK-10 renal = test system: TK-10 renal
U251 CNS = test system: U251 CNS
UACC-257 melanoma = test system: UACC-257 melanoma
UACC-62 melanoma = test system: UACC-62 melanoma
UO-31 renal = test system: UO-31 renal

COc1cc(Nc2nc(N[C@H]3CCCC[C@@H]3N)nc3cc[nH]c(=O)c23)cc(OC)c1 was tested, and the GI50 (786-0 renal) was 3.31 µM, the TGI (786-0 renal) was 18.8 µM and the GI50 (A498 renal) was 1.01 µM. For the same compound, the TGI (A498 renal) was 10.1 µM, the GI50 (A549 NSCLC) was 2.57 µM and the TGI (A549 NSCLC) was 16.1 µM. It also gave a GI50 (ACHN renal) of 1.38 µM, a TGI (ACHN renal) of 19.9 µM and a GI50 (BT-549 breast) of 1.57 µM. It also gave a TGI (BT-549 breast) of 5.03 µM, a GI50 (CAKI-1 renal) of 1.84 µM and a TGI (CAKI-1 renal) of 10.9 µM. It also gave a GI50 (CCRF-CEM leukemia) of 1.39 µM, a TGI (CCRF-CEM leukemia) of 11.8 µM and a GI50 (COLO 205 colon) of 1.04 µM. It also gave a TGI (COLO 205 colon) of 2.49 µM, a GI50 (DU-145 prostate) of 0.74 µM and a TGI (DU-145 prostate) of 15.3 µM. The GI50 (EKVX NSCLC) was 1.08 µM, the TGI (EKVX NSCLC) was 12.2 µM and the GI50 (HCC-2998 colon) was 1.7 µM. For the same compound, the TGI (HCC-2998 colon) was 11.5 µM, the GI50 (HCT-116 colon) was 1.03 µM and the TGI (HCT-116 colon) was 2.27 µM. It also gave a GI50 (HCT-15 colon) of 3.97 µM, a TGI (HCT-15 colon) of 18.3 µM and a GI50 (HL-60(TB) leukemia) of 0.47 µM. The TGI (HL-60(TB) leukemia) was 3.8 µM, the GI50 (HOP-62 NSCLC) was 3.21 µM and the TGI (HOP-62 NSCLC) was 20.8 µM. The GI50 (HOP-92 NSCLC) was 1.06 µM, the TGI (HOP-92 NSCLC) was 9.13 µM and the GI50 (HS 578T breast) was 1.14 µM. It also gave a TGI (HS 578T breast) of 15.2 µM, a GI50 (HT29 colon) of 0.391 µM and a TGI (HT29 colon) of 3.69 µM. The GI50 (K-562 leukemia) was 2.47 µM, the TGI (K-562 leukemia) was 10.3 µM and the GI50 (KM12 colon) was 0.422 µM. It also gave a TGI (KM12 colon) of 3.11 µM, a GI50 (LOX IMVI melanoma) of 0.468 µM and a TGI (LOX IMVI melanoma) of 1.77 µM. For the same compound, the GI50 (M14 melanoma) was 0.379 µM, the TGI (M14 melanoma) was 2.16 µM and the GI50 (MALME-3M melanoma) was 2.2 µM. It also gave a TGI (MALME-3M melanoma) of 22.5 µM, a GI50 (MCF7 breast) of 1.37 µM and a TGI (MCF7 breast) of 8.44 µM. The GI50 (MDA-MB-231 breast) was 1.99 µM, the TGI (MDA-MB-231 breast) was 9.35 µM and the GI50 (MDA-MB-435) was 0.997 µM. The TGI (MDA-MB-435) was 2.6 µM, the GI50 (MOLT-4 leukemia) was 1.19 µM and the TGI (MOLT-4 leukemia) was 11.4 µM. It also gave a GI50 (NCI-H226 lung) of 1.88 µM, a TGI (NCI-H226 lung) of 12.4 µM and a GI50 (NCI-H23 lung) of 1.48 µM. The TGI (NCI-H23 lung) was 15.8 µM, the GI50 (NCI-H460 lung) was 1.28 µM and the TGI (NCI-H460 lung) was 4.21 µM. It also gave a GI50 (NCI-H522 lung) of 1.45 µM, a TGI (NCI-H522 lung) of 4.55 µM and a GI50 (NCI/ADR-RES ovarian) of 41.4 µM. The TGI (NCI/ADR-RES ovarian) was greater than 100 µM, the GI50 (OVCAR-3 ovarian) was 8.71 µM and the TGI (OVCAR-3 ovarian) was 21.8 µM. For the same compound, the GI50 (OVCAR-4 ovarian) was 5.93 µM, the TGI (OVCAR-4 ovarian) was 20 µM and the GI50 (OVCAR-5 ovarian) was 1.11 µM. For the same compound, the TGI (OVCAR-5 ovarian) was 14.6 µM, the GI50 (OVCAR-8 ovarian) was 3.17 µM and the TGI (OVCAR-8 ovarian) was 19.6 µM. The GI50 (PC-3 prostate) was 2.53 µM, the TGI (PC-3 prostate) was 20.8 µM and the GI50 (RPMI-8226 leukemia) was 2.18 µM. It also gave a TGI (RPMI-8226 leukemia) of 12.1 µM, a GI50 (RXF 393 renal) of 0.403 µM and a TGI (RXF 393 renal) of 2.76 µM. For the same compound, the GI50 (SF-268 CNS) was 2.17 µM, the TGI (SF-268 CNS) was 17.7 µM and the GI50 (SF-295 CNS) was 1.5 µM. The TGI (SF-295 CNS) was 4.46 µM, the GI50 (SF-539 CNS) was 0.454 µM and the TGI (SF-539 CNS) was 2.64 µM. For the same compound, the GI50 (SK-MEL-28 melanoma) was 1.86 µM, the TGI (SK-MEL-28 melanoma) was 6.44 µM and the GI50 (SK-MEL-5 melanoma) was 1.22 µM. It also gave a TGI (SK-MEL-5 melanoma) of 6.06 µM, a GI50 (SK-OV-3 ovarian) of 0.388 µM and a TGI (SK-OV-3 ovarian) of 17.5 µM. The GI50 (SN12C renal) was 2.43 µM, the TGI (SN12C renal) was 16.9 µM and the GI50 (SNB-19 CNS) was 3.01 µM. The TGI (SNB-19 CNS) was 16.7 µM, the GI50 (SNB-75 CNS) was 3.27 µM and the TGI (SNB-75 CNS) was 17.3 µM. For the same compound, the GI50 (SR leukemia) was 0.8 µM, the TGI (SR leukemia) was 3.91 µM and the GI50 (SW-620 colon) was 1.16 µM. For the same compound, the TGI (SW-620 colon) was 2.97 µM, the GI50 (T-47D breast) was 12.8 µM and the TGI (T-47D breast) was 30.2 µM. It also gave a GI50 (TK-10 renal) of 1.84 µM, a TGI (TK-10 renal) of 19.3 µM and a GI50 (U251 CNS) of 1.46 µM. It also gave a TGI (U251 CNS) of 5.31 µM, a GI50 (UACC-257 melanoma) of 1.55 µM and a TGI (UACC-257 melanoma) of 3.33 µM. The GI50 (UACC-62 melanoma) was 0.844 µM, the TGI (UACC-62 melanoma) was 19.1 µM and the GI50 (UO-31 renal) was 6.72 µM. For the same compound, the TGI (UO-31 renal) was 21.5 µM.
